# According to EP4458977A1, “SELF-ASSEMBLING PEPTIDE AMPHIPHILES AS RETROVIRAL TRANSDUCTION ENHANCERS” (Max-Planck-Gesellschaft zur Förderung der Wissenschaften …, priority 2023, dated 2024):
# “Also recorded” adds a separate entry of the source. Where a SMILES comes first, the peptide text is derived from it. Where no end group is shown, it is not given here. The star is where a group is joined. Palmitoyl = CCCCCCCCCCCCCCCC(=O)*
# Assays:
# HIV-1 = settings: for enhancement of HIV-1 infection / transduction (in words): 6.5 µM, 1.3 µM, 0.26 µM; for Infectivity enhancing N fold at 1.3 µM: relative to virus only;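 on all read-outs here: TZM-bl reporter cells exposed to HIV-1 with peptide fibrils, infection read out as β-galactosidase luminescence, compared with virus alone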
# Protocol: HIV-1 Infection Assay with TZM-bl cells: The effect of peptide fibrils on HIV-1 infection was studied via a luminescence assay for β-galactosidase, which was reported by TZM-bl cells upon infection. The HIV-1 infection assay was conducted in three technical replicates and repeated in three independent experiments unless stated otherwise.
# [1] = TEM of peptide assemblies (fibril formation / assembly); assay type: physicochemical; settings: for TEM morphology (in words): 1 mg/mL in PBS; for Assembly without hydrophob residue: corresponding peptide without hydrophobic moiety; for Assembly: peptide amphiphile
# Protocol: The peptides were predissolved in DMSO to a concentration of 10 mg/mL. The fibril formation was induced by further diluting the solution to a final incubation concentration of 650 µM or 1 mg/mL in PBS as indicated in the text and incubated for 1 d (1 day) at rt (room temperature, 20 °C - 25 °C). Other concentrations as described herein were achieved by further dilution of preformed fibrils.
# (§1) Transmission electron microscopy (TEM) measurements, Thioflavin (ThT), zeta-potential measurements for fibril characterization were prepared and conducted according to prior art procedures. […] Fibrils were defined as distinct, if no visible structures could be identified in fluorescence and brightfield microscopy.
# [2] = Fluorescence microscopy of ThT-stained fibrils (µm-sized aggregates); assay type: physicochemical; settings: 1 mg/mL stained with 50 µM ThT
# Protocol: as §1
# Fluorescence microscopy: 1 µL Fibrils (1 mg mL^-1) were stained with 9 µL, 50 µM ThT. 10 µL of the stained fibrils (0.1 mg mL^-1) were placed on a microscopy glass. Fluorescence microscopy measurements were performed on a Leica DMi8 microscope with 10x air objective and equipped with a Leica MC170 HD camera with a filter setting λem = 527/30 nm upon excitation at λex = 480/40 nm) and processed with the Leica LASX software.
# [3] = ATR-FT-IR determination of β-sheet content; assay type: physicochemical; settings: 1 mg/mL in PBS lyophilized; integral at 1630 cm^-1 relative to 1650-1700 cm^-1
# Protocol: ATR-FT-IR: ATR-IR spectra acquisition and the calculation of β-sheet content were conducted according prior art procedures. Briefly, FT-IR spectra of solid samples were recorded after lyophilization of fibril solutions using a Bruker Tensor II spectrometer equipped with a diamond crystal as ATR element with a spectral resolution of 2 cm^-1, each spectrum was an average of 64 scans. The data was processed with Origin software. β-sheet amount was determined by calculating the integral of the peak at 1630 cm-1 (β-sheet) relative to the integral between 1650-1700 cm-1 (native structure) from the 2nd derivative of the FT-IR spectra.
# HeLa cells = assay: Confocal laser scanning microscopy and degradation study with PA library and HeLa cells; assay type: cell-based; settings: for association with cellular membranes: 2 µg added to 20.000 HeLa cells, 30 min; for degradability (in words) / Degradability / % (rel. to initial particles > 10 µm^2): HeLa cells; for degradability (in words): 3 days; for Degradability / % (rel. to initial particles > 10 µm^2): 3 d relative to 30 min
# Protocol: In general, the procedure for determine whether a PA is degraded or not, is conducted by confocal laser scanning microscopy of Proteostat stained PAs which are added to Hela cells (2 µg peptide added to 20.000 cells). Microscopy is conducted at day 0 (d0, after 30 min of incubation) and at day 3 (d3, after 72 h of incubation). The number of aggregates >10 µm^2 is counted via 3D object counter in imaged in an area of 1008 µm × 1008 µm.
# A PA is considered to be degradable if the number and the size of aggregates are reduced after 3 days. The efficiency is determined by the percentual degradation (aggregate number at d3 / aggregate number at d0). For the number of aggregation three technical replicates were evaluated for each sample. A large deviation represents a nonhomogeneous spatial distribution of aggregates.
# Confocal laser scanning microscopy and degradation study with PA library and HeLa cells: Confocal laser scanning microscopy studies were performed for the visualization of the cell-PA interaction. HeLa cells were seeded one day prior to conducting the assay (20,000/well) in an 8-well IBIDI slide. […] The nucleus of the HeLa cells was stained with Hoechst 33342 (NucBlue™, Thermo Fisher Scientific). The peptide solution mixture was transferred to the HeLa cells and incubated for 30 min at 37°C before washing three times with PBS. […] For the evaluation of aggregate degradation, the samples were further incubated at 37°C for 3 d and analyzed without any additional washing step. […] The number of aggregates were determined by counting aggregates larger than the threshold 10 µm^2 in an area of 1008 × 1008 µm and repeated in three technical triplicates.
Molecule,infectivity enhancement at 1.3 µM concentration compared to virus only infection (in words) (HIV-1),enhancement of HIV-1 infection / transduction (in words) (HIV-1),Infectivity enhancing N fold at 1.3 µM (HIV-1),TEM morphology (in words) [1],Assembly without hydrophob residue [1],Assembly [1],"fluorescent, µm-sized aggregates (ThT staining) [2]",β-sheet amount [3],association with cellular membranes (HeLa cells),degradability (in words) (HeLa cells),Degradability / % (rel. to initial particles > 10 µm^2) (HeLa cells),aggregate number decreases / degraded in presence of HeLa cells within 3 days (HeLa cells; d3 relative to d0),"enhances infectivity at 1.3 µM concentration, times more efficient compared to virus only infection (HIV-1)",aggregate number increases (HeLa cells; d3 relative to d0)
"CCCCCCCCCCCCCCCC(=O)NCC(=O)N[C@@H](CCCCN)C(=O)N[C@H](C(=O)NCC(=O)N[C@@H](CO)C(=O)N[C@@H](CCCCN)C(N)=O)C(C)C [Pat30, C16-GKVGSK-NH2] (Palmitoyl-GKVGSK-NH2)",does not enhance infectivity,do not efficiently enhance infectivity,2±1 N fold,fibrillar morphologies,No,Yes,"less fluorescent, µm-sized aggregates",41%,no association with cellular membranes,,,,,
"CCCCCCCCCCCCCCCC(=O)N[C@H](C(=O)N[C@H](C(=O)N[C@@H](C)C(=O)N[C@@H](C)C(=O)N[C@@H](Cc1c[nH]cn1)C(=O)N[C@@H](Cc1c[nH]cn1)C(=O)N[C@@H](Cc1c[nH]cn1)C(N)=O)C(C)C)C(C)C [Pat24, C16-VVAAHHH-NH2] (Palmitoyl-VVAAHHH-NH2)",does not enhance infectivity,do not efficiently enhance infectivity,2±0 N fold,fibrillar morphologies,No,Yes,"fluorescent, µm-sized aggregates",70%,association with cellular membranes,cannot efficiently be degraded; also recorded: not efficiently degradable; also recorded: non-degradable PA,26%,26%,,
CCCCCCCCCCCCCCCC(=O)N[C@@H](CCCCN)C(=O)N[C@@H](Cc1ccc(O)cc1)C(=O)N[C@H](C(=O)N[C@@H](Cc1c[nH]cn1)C(=O)N[C@@H](CCC(N)=O)C(=O)N[C@@H](CC(N)=O)C(=O)N[C@@H](Cc1ccc(O)cc1)C(=O)N[C@H](C(=O)N[C@@H](CCCCN)C(=O)N[C@@H](C)C(=O)N[C@@H](CC(C)C)C(=O)N[C@@H](C)C(=O)NCC(=O)N[C@@H](CCCCN)C(=O)N[C@@H](CC(C)C)C(=O)N[C@H](C(N)=O)C(C)C)[C@@H](C)O)[C@@H](C)CC [Pat26] (Palmitoyl-KYIHQNYTKALAGKLV-NH2),does not enhance infectivity,,5±2 N fold,fibrillar morphologies,No,Yes,"fluorescent, µm-sized aggregates",51%,association with cellular membranes,cannot be degraded; also recorded: not efficiently degradable; also recorded: non-degradable PA,-110%,,5 times,110%
CCCCCCCCCCCCCCCC(=O)N[C@@H](CCCCN)C(=O)NCC(=O)N[C@H](C(=O)N1CCC[C@H]1C(=O)NCC(=O)N[C@H](C(=O)NCC(=O)N[C@@H](CCCCN)C(N)=O)C(C)C)C(C)C [Pat25] (Palmitoyl-KGVPGVGK-NH2),do not enhance infectivity,no infectivity enhancement can be observed,1±0 N fold,not forming fibrils; also recorded: no fibrillar morphologies,Yes,No,"fluorescent, µm-sized aggregates",0%,no association with cellular membranes,,,,,
"KIISFK-NH2 [Pat51, KIISFK-NH2]",,not potent enhancers of HIV-1 infection,,no fibrillar morphologies,,,"no fluorescent, µm-sized aggregates",38%,,,,,,
CCCCCCCCCCCCCCCC(=O)NCC(=O)NCC(=O)NCC(=O)N[C@@H](CO)C(=O)N[C@@H](CO)C(=O)N[C@@H](CCCCN)C(=O)N[C@@H](CCCCN)C(=O)N[C@@H](CCCCN)C(N)=O [Pat28] (Palmitoyl-GGGSSKKK-NH2),,,2±1 N fold,fibrillar morphologies,No,Yes,"no fluorescent, µm-sized aggregates",26%,no association with cellular membranes,,,,,
"IIQKIK-NH2 [Pat34, IIQKIK-NH2]",,not potent enhancers of HIV-1 infection,,no fibrillar morphologies,,,"no fluorescent, µm-sized aggregates",31%,,,,,,
"AGGRVK-NH2 [Pat37, AGGRVK-NH2]",cannot enhance infectivity,,,no fibrillar morphologies,,,"no fluorescent, µm-sized aggregates",0%,,,,,,
"LNGGVKK-NH2 [Pat38, LNGGVKK-NH2]",,not potent enhancers of HIV-1 infection,,no fibrillar morphologies,,,"no fluorescent, µm-sized aggregates",0%,,,,,,
"CCCCCCCCCCCCCCCC(=O)N[C@@H](C)C(=O)N[C@@H](CCC(N)=O)C(=O)N[C@@H](C)C(=O)N[C@@H](CCCCN)C(=O)N[C@@H](C)C(=O)N[C@@H](CCCCN)C(N)=O [Pat16, C16-AQAKAK-NH2] (Palmitoyl-AQAKAK-NH2)",,do not efficiently enhance infectivity,4±1 N fold,fibrillar morphologies,No,Yes,"fluorescent, µm-sized aggregates",50%,,cannot be degraded; also recorded: non-degradable PA,-83%,,4 times,83%
"LLLKK-NH2 [Pat42, LLLKK-NH2]",cannot enhance infectivity,,,no fibrillar morphologies,,,"no fluorescent, µm-sized aggregates",33%,,,,,,
"GKVGSK-NH2 [Pat49, GKVGSK-NH2]",,not potent enhancers of HIV-1 infection,,no fibrillar morphologies,,,"no fluorescent, µm-sized aggregates",4%,,,,,,
"AVAKKK-NH2 [Pat40, AVAKKK-NH2]",cannot enhance infectivity,,,no fibrillar morphologies but amorphous aggregates,,,"no fluorescent, µm-sized aggregates",29%,,,,,,
